| melting point | SMILES |
| --- | --- |
| 150 to 151 °C | CCN(CC)CCOc1ccc(Nc2ncc3c(n2)N(C)C(=O)N(c2ccccc2Cl)C3)cc1 |
| 105 to 106 °C | Cc1cc(-c2cccc(C(F)(F)F)c2)c2ncc(OC(F)F)nc2c1 |
| 338 to 339 °C | O=C=Nc1ccc(-c2n[nH]c3c2Cc2ccccc2-3)cc1 |
| 155 to 156 °C | O=C(O)C(=O)c1c(Cl)cc(OCCOc2ccc3ccccc3c2)cc1Cl |
| 293 to 295 °C | O=C1N=C(N2CCOCC2)SC1=Cc1cccc(-c2cc(F)c(O)c(C34CC5CC(CC(C5)C3)C4)c2)c1 |
| > 300 °C | O=c1[nH]c2ccc(F)cc2n2ccnc12 |
| 299 to 301 °C | Cn1c(=O)c2nc(-c3ccc(/C=C/C(=O)O)cc3)[nH]c2n(C)c1=O |
| 138 to 140 °C | Cc1ccccc1Nc1c(C(=O)C(C)C)cnc2c(OCCO)cccc12 |
| 201 to 203 °C | O=C1CCC(N2C(=O)c3cccc(CNC(=O)Nc4ccc5ccccc5c4)c3C2=O)C(=O)N1 (stereo not given) |
| 307 °C | Cc1nc2c3c(ccc2n1C)[C@H]1OCCO[C@@H]1[C@@H](c1ccccc1)O3 |
| 316 to 318 °C | CN1CCC(n2cc(C3=C(c4cn(C)c5ccccc45)C(=O)NC3=O)c3ccccc32)CC1 |
| 240 to 244 °C | COc1cc2c(cc1C(F)(F)F)N(C(=O)Nc1cccs1)CC2 |
| 292 to 294 °C | O=c1[nH]c2ncc(-c3ccc(-c4cc[nH]n4)cc3)nc2n1CC1CCCCC1 |
| 98 to 99 °C | COc1ccc2c(c1)c(S(=O)(=O)c1ccccc1)cn2CCNCc1ccccc1 |
| 216 to 217 °C | Fc1ccc(-c2n[nH]cc2-c2ccnc(NCc3ccccc3)n2)cc1 |
| 232 to 234 °C | COc1ccc2c(c1)CCC1CCNC(=O)C(CC(=O)O)=C21 (stereo not given) |
| 145 to 148 °C | Clc1ccccc1-c1cnc2nncn2n1 |
| 260 to 262 °C | CC(C)(C)C(=O)c1c[nH]c2ncc(-c3cccc(N4CC5(COC5)C4)c3)nc12 |
| 227 to 230 °C | CCCCc1ncc(/C=C(\Cc2cccs2)c2nnn[nH]2)n1Cc1ccc(-c2nnn[nH]2)cc1 |

| melting point | SMILES |
| --- | --- |
| 222 to 223 °C | CCCCc1nnc(S(=O)Cc2ccc([N+](=O)[O-])cc2)n1Cc1ccc(-c2ccccc2-c2nnn[nH]2)cc1 (stereo not given) |
| 270 to 275 °C | COC(=O)c1ccc(NC(=O)C(CC2CCCC2)c2ccc(F)c(C(F)(F)F)c2)nc1 (stereo not given) |
| 184 to 187 °C | COc1ccc(C2=NN(c3ccc(OCC(N)=O)cc3)C(=O)C(C)(C)C2)cc1OC |
| 242 to 245 °C | CC(C)(C)c1ccc(C(=O)Nc2cn3cc(-n4ccnc4)ccc3n2)cn1 |
| 178 to 180 °C | CCC(CC)Nc1cc(C(=O)O)ccc1N1CCCC1=O |
| 136 °C | N#CCCNNC(=O)c1ccc(OCc2ccccc2)cc1 |
| 80 to 82 °C | CCCCCN1C(=O)C(=O)c2c(OC)cccc21 |
| 290 to 293 °C | O=C(O)C1Cc2cc3c(=O)c4ccccc4oc3c(Cl)c2O1 (stereo not given) |
| 131 to 132 °C | CCc1cc(OCc2ccc3oc(-c4ccccc4C(=O)OC)nc3c2)c2c(n1)CCCC2 |
| 62 to 63 °C | O=c1oc2cccnc2n1CCCN1CCN(c2cccc(C(F)(F)F)c2)CC1 |
| 195 °C | CCOC(=O)c1c(N2CCN(C(=O)c3cccs3)CC2)c2c(C)csc2n(Cc2ccccc2)c1=O |
| > 290 °C | Cc1c(Cl)c(Cl)nc2c1NC(=O)c1cccnc1N2C1CC1 |
| 129 °C | COc1c(C)cc(-c2cc(-c3ccncc3)c(N3CCOCC3)s2)nc1C |
| 89 to 90 °C | Cc1cc(-c2ccc(F)cc2)c(C=CC=O)o1 |
| 173 to 175 °C | CC(C)(C)OC(=O)N1CCC(CC(=O)Nc2cccc(-c3ccnc4c(C(=O)c5cccs5)cnn34)c2)CC1 |
| 119 to 120 °C | COCCNC(=O)c1cccc(-c2ccc3c(c2)N(c2ccc(Cl)cc2Cl)CC3)c1 |
| 220 to 222 °C | CNC(=O)c1ccc(-c2ccc3nnn(Cc4ccc5ncccc5c4)c3n2)cc1 |
| 215 to 216 °C | O=C(O)CCc1ccnc(-c2nc(=O)c3ccccc3s2)c1 |
| 270 to 273 °C | COc1ccc2c(=O)c(-c3nnnn3C)cn(C)c2c1 |

The next lines start with the compound.

| SMILES | melting point |
| --- | --- |
| CN(N)c1nc2ccccc2s1 | 137 to 139 °C |
| CC(C)C[C@@H](NC(=O)c1cnc(N2CCC(N3C(=O)OCc4ccccc43)CC2)c(Cl)c1)C(N)=O | 139 to 142 °C |
| COc1ccc2cc(-c3ccc(O)cc3)[nH]c(=O)c2c1 | 255 °C |
| COc1cc(NCCCCCCCl)c2nccc(C)c2c1 | 66 °C |
| COc1ccc(-c2cc(C)cn2-c2ccc(S(=O)(=O)NC(C)=O)cc2)cc1 | 215 to 217 °C |
| COC(=O)c1ccc(OC)nc1OC | 52 to 54 °C |
| COC[C@@H]1[C@@H](c2ccc(Cl)c(Cl)c2)C[C@@H]2CC[C@H]1N2C | 73 to 76 °C |
| CCC(CC)N(O)C(=O)Nc1ccc(Cc2ccccc2)cc1 | 132 to 134 °C |
| Cc1ccc(S(=O)(=O)Nc2cc(C(C)C)c([N+](=O)[O-])cc2Br)cc1 | 132 °C |
| COCn1cncc1C[C@H](NC(=O)C(Cc1cccc2ccccc12)Cc1cccc2ccccc12)C(=O)OC | 182 to 185 °C |
| O=C(OC[C@H]1CC(=O)[C@@H]1COC(=O)c1ccccc1)c1ccccc1 | 93 to 94 °C |
| CCN(CC)C(=O)c1c(I)ccc(F)c1[Si](C)(C)C | 58.5 to 64 °C |
| CC(O)c1cc(I)c(O)c(Cl)n1 (stereo not given) | 114 to 116 °C |
| Cc1cc(C)c2c(c1C)OCC2c1ccc(Br)cc1 (stereo not given) | 72 to 73 °C |
| COC(=O)[C@H]1[C@@H](N=[N+]=[N-])C(=O)N1Cc1ccc(OC)cc1OC (relative stereo) | 82 to 84 °C |
| COc1cc2ccsc2c(Cl)c1Cl | 103 to 104 °C |

| SMILES | melting point |
| --- | --- |
| O=C(O)COc1c(-c2cccc(Cl)c2)cc(C(=O)NCCCCCCCCn2ccc3cc(F)ccc32)cc1-c1cccc(Cl)c1 | 141 to 144 °C |
| CCCC12CCC3C4CCCC=C4CCC3C1CCC2O (stereo not given) | 115 to 119 °C |
| Cc1ccc(O)c2c1C(C(=O)N(Cc1ccc(N(C)C)cc1)c1ccc(C(C)C)cc1)CCC2 (stereo not given) | 190 °C |
| Cc1nc(N)nc(N)c1-c1cc(N)ccc1Cl | 117 to 121 °C |
| COc1cccc(C(=O)P2(=O)Oc3ccccc3-c3ccccc32)c1 (stereo not given) | 116 to 118 °C |
| ON=CN1CCCC1C1=Nc2ccc(Cl)cc2C(c2ccccc2F)=NC1 (stereo not given) | 175 to 178 °C |
| Cc1ccc(SCC2=NOCN2)cc1 | 85 °C |
| Clc1ccc2c(c1)C(c1ccsc1)=NCC1COCCN21 (stereo not given) | 207 to 212 °C |
| CNC1=Nc2sc(Cl)cc2C(c2ccccc2Cl)=NC1 | 259 to 262 °C |
| COC(=O)c1c(Cn2cncn2)nc2cc(OC)c(OC)cc2c1-c1ccc(OC)c(OC)c1 | 218 to 220 °C |
| CCOC(=O)NS(=O)(=O)c1ccc(C(=O)C=Cc2cc(-c3cc4ccccc4[nH]3)c(OC)cc2OC)cc1 | 165 to 175 °C |
| COc1c(C)c2c(c(C(=O)O)c1C/C=C(\C)CCC(=O)O)C(=O)OC2 | 172 to 174 °C |
| CNC(=O)Oc1cccc(NC(=O)CC(C)=O)c1 | 142 °C |
| O=C(Nc1cnc(-c2ccccc2)nc1C(=O)O)OCc1ccc(-c2ccccc2)cc1 | 173 °C |
| COCc1nc2c(N)nc3cc(CCC#N)ccc3c2n1CC(C)(C)O | 191 to 193 °C |
| Cc1nn(C(=O)NC(C)(C)C)c(=O)n1N | 132 °C |

From a melting point compilation (Tetko et al.; mined from patent text by program, amines drawn as free bases though some values may be those of a salt)
